In US20240139221A1, “TREATMENT OF HPV-INDUCED NEOPLASIA” (priority 2022, published 2024):

Assays:
physchem = conditions: for solubility: 37 °C, thermodynamic from solid; for pH of solution, 2 hours / Solubility 2 hours: 37° C.; for Solubility 2 hours: target 10 mg/5 mL
Protocol: About 4 mg of Compound I Pattern 1 was added into 2 mL of buffer solution.
(§1) Solubility was tested in five media, pH 3.0 citrate buffer, pH 4.5 acetate buffer, pH 6.8 phosphate buffer, water, simulated vaginal fluid (pH 4.2) at 37° C. for 0.5 h and 2 h.
The salt amount used is equivalent to 10 mg anhydrous free base. […] The obtained clear solutions were analyzed by pH meter for pH, and solubility was determined by observation.
as §1

[1] = Polymorph screening by equilibration in solvents at 25° C. (crystal modification, XRPD); type: physicochemical
[2] = Bulk stability (accelerated stability, one week; HPLC and XRPD); conditions: for Bulk (XRPD) / Color / Purity, Bulk (HPLC): Solid state, 1 week
[3] = Hygroscopicity by DVS at 25° C.; type: physicochemical
Protocol: Hygroscopicity was investigated by DVS at 25° C., using the following method: […]

[4] = Simulated vaginal fluid (pH adjusted by 0.1N NaOH)
[5] = cycle of 40-0-95-0-45% relative humidity

What does the source list for `CCOC(=O)[C@H](C)N[P@](=O)(COCCn1cnc2c(OC)nc(N)nc21)OCc1ccccc1` (single isomer, unassigned) [Compound III, monofumarate]?
solubility (physchem; aqueous buffer): > 2000 µg/mL; solubility (physchem; pH 3, aqueous buffer): > 2000 µg/mL; solubility (physchem; pH 4.2, fassgf or other biorelevant): > 2000 µg/mL; solubility (physchem; pH 4.5, aqueous buffer): > 2000 µg/mL; solubility (physchem; pH 6.8, aqueous buffer): > 2000 µg/mL; solubility (physchem; water): > 2000 µg/mL; pH of solution, 2 hours (physchem; [4]): 5.37; Solubility 2 hours (physchem; [4]): > 2000 µg/mL; pH of solution, 2 hours (physchem; Water): 2.78; Solubility 2 hours (physchem; Water): > 2000 µg/mL; pH of solution, 2 hours (physchem; pH 3.0, 100 mM citrate buffer): 2.83; Solubility 2 hours (physchem; pH 3.0, 100 mM citrate buffer): > 2000 µg/mL; pH of solution, 2 hours (physchem; pH 4.5, 50 mM acetate buffer): 4.12; Solubility 2 hours (physchem; pH 4.5, 50 mM acetate buffer): > 2000 µg/mL; pH of solution, 2 hours (physchem; pH 6.8, 50 mM phosphate buffer): 6.44; Solubility 2 hours (physchem; pH 6.8, 50 mM phosphate buffer): > 2000 µg/mL; Crystal modification after 1 week equilibration at 25° C. ([1]; PS1, solvent IPA): Compound V Pattern 2; Crystal modification after 1 week equilibration at 25° C. ([1]; PS2, solvent Heptanes): Compound III Pattern 2; Crystal modification after 1 week equilibration at 25° C. ([1]; PS3, solvent Water): Compound III Pattern 3; Crystal modification after 1 week equilibration at 25° C. ([1]; PS4, solvent ACN): Compound III Pattern 4; Crystal modification after 1 week equilibration at 25° C. ([1]; PS5, solvent MEK): Compound III Pattern 5; Crystal modification after 1 week equilibration at 25° C. ([1]; PS7, solvent IPA/heptanes (3/10, v/v)): Compound III Pattern 2; Crystal modification after 1 week equilibration at 25° C. ([1]; PS8, solvent water/ACN (2.9/97.1, v/v)): Compound III Pattern 4; Crystal modification after 1 week equilibration at 25° C. ([1]; PS9, solvent IPA/MTBE (1/3, v/v)): Compound III Pattern 6; Crystal modification after 1 week equilibration at 25° C. ([1]; PS10, solvent EA/toluene (1/3, v/v)): Compound III Pattern 2; physical and chemical stability (in words) ([2]; 25° C./92% RH open, 40° C./75% RH open, 60° C. tight container, one week): good physical stability; Bulk (XRPD) ([2]; 25° C./92% RH, open container): No form change; Color ([2]; 25° C./92% RH, open container): No change; Purity, Bulk (HPLC) ([2]; 25° C./92% RH, open container): 98.7%; Bulk (XRPD) ([2]; 40° C./75% RH, open container): No form change (One; Color ([2]; 40° C./75% RH, open container): No change; Purity, Bulk (HPLC) ([2]; 40° C./75% RH, open container): 97.2%; Bulk (XRPD) ([2]; 60° C., tight container): No form change (One; Color ([2]; 60° C., tight container): No change; Purity, Bulk (HPLC) ([2]; 60° C., tight container): 97.3%; Initial HPLC purity ([2]; initial, before storage): 98.8%; Hygroscopicity (in words) ([3]; DVS 25° C.): slightly hygroscopic; XRPD after DVS test ([3]; after 40-0-95-0-40% RH cycle, 25° C.): No form change; XRPD pattern after humidity cycle [3, 5]: lose one of the peaks; increase in retained water content versus Compound II [3, 5]: 40 fold
